{
  "source": "patent US20030166645A1",
  "about": "“Novel nitrofuran-containing heterocyclic compounds and uses thereof” (priority 2001, published 2003)",
  "experiment_in_all_cases": "Microdilution antimicrobial susceptibility test (MIC)",
  "assay_type_in_all_cases": "cell-based",
  "key": {"E coli": {"tested_on": "E coli", "conditions": "broth microdilution, 18-24 h, MIC = 90% inhibition of growth"}, "E coli (ImpA)": {"tested_on": "E coli (ImpA)", "conditions": "broth microdilution, 18-24 h, MIC = 90% inhibition of growth", "experimental": "Microdilution Antimicrobial Susceptibility Test Assay\nStock solutions of tested compounds were prepared in N,N-dimethylformamide (DMF) at a concentration of 5 mg/mL. Working solutions of the tested compounds were then prepared from the stock solutions, in Mueller-Hinton broth (MHB) with a starting concentration of 64 μg/mL.\nBacterial inocula were prepared from overnight culture (i.e., one fresh colony from agar plate in 5 ml MHB; H. influenzae was grown in MHB with the addition of yeast extract, haematin, and NAD), centrifuged 2×5 min/3000 rpm (for S. pneumoniae and H. influenzae, 2×10 min/3000 rpm), and dispensed in 5 ml of fresh MHB each time, such that the bacterial suspension is diluted to obtain 100 colony forming units (cfu) in a microplate well (100 μl total volume).\nMicroplate wells were filled with two-fold dilutions of test compound (50 Al), starting with 64 μg/ml. Wells were then filled with 50 μl of bacterial inoculum (final volume: 100 μl/well). The plates were incubated at 37° C. for 18-24 hours (S. pneumoniae was grown in a CO2-enriched atmosphere)."}, "S aureus": {"tested_on": "S aureus", "conditions": "broth microdilution, 18-24 h, MIC = 90% inhibition of growth"}, "E faecalis": {"tested_on": "E faecalis", "conditions": "broth microdilution, 18-24 h, MIC = 90% inhibition of growth"}, "S pneumoniae": {"tested_on": "S pneumoniae", "conditions": "broth microdilution, 18-24 h, CO2-enriched atmosphere, MIC = 90% inhibition of growth"}, "M. catarrhalis": {"tested_on": "M. catarrhalis", "conditions": "broth microdilution, 18-24 h, MIC = 90% inhibition of growth"}, "H influenzae": {"tested_on": "H influenzae", "conditions": "broth microdilution, 18-24 h, MIC = 90% inhibition of growth"}, "S cerevisiae": {"tested_on": "S cerevisiae", "conditions": "broth microdilution, 18-24 h, MIC = 90% inhibition of growth"}},
  "data": [
    {"smiles": "Cn1c(SCc2ccncc2)nnc1-c1ccc([N+](=O)[O-])o1", "note": "[Compound 129]", "values": [
      {"measurement": "MIC E coli MIC2", "setting": "E coli", "value": 64, "unit": "µg/mL"},
      {"measurement": "MIC E coli (ImpA) MIC9", "setting": "E coli (ImpA)", "value": 4, "unit": "µg/mL"},
      {"measurement": "MIC S aureus MIC2", "setting": "S aureus", "value": 16, "unit": "µg/mL"},
      {"measurement": "MIC E faecalis MIC2", "setting": "E faecalis", "value": 64, "unit": "µg/mL"},
      {"measurement": "MIC S pneumoniae MIC6", "setting": "S pneumoniae", "value": 16, "unit": "µg/mL"},
      {"measurement": "MIC M. catarrhalis MIC2", "setting": "M. catarrhalis", "value": 0.5, "unit": "µg/mL"},
      {"measurement": "MIC H influenzae MIC4", "setting": "H influenzae", "value": 16, "unit": "µg/mL"},
      {"measurement": "MIC S cerevisiae MIC7", "setting": "S cerevisiae", "value": ">64", "unit": "µg/mL"}
    ]},
    {"smiles": "O=[N+]([O-])c1ccc(-c2nnc(S)n2CCCN2CCOCC2)o1", "note": "[Compound 120]", "values": [
      {"measurement": "MIC E coli MIC2", "setting": "E coli", "value": ">64", "unit": "µg/mL"},
      {"measurement": "MIC E coli (ImpA) MIC9", "setting": "E coli (ImpA)", "value": 32, "unit": "µg/mL"},
      {"measurement": "MIC S aureus MIC2", "setting": "S aureus", "value": 64, "unit": "µg/mL"},
      {"measurement": "MIC E faecalis MIC2", "setting": "E faecalis", "value": 64, "unit": "µg/mL"},
      {"measurement": "MIC S pneumoniae MIC6", "setting": "S pneumoniae", "value": 16, "unit": "µg/mL"},
      {"measurement": "MIC M. catarrhalis MIC2", "setting": "M. catarrhalis", "value": 2, "unit": "µg/mL"},
      {"measurement": "MIC H influenzae MIC4", "setting": "H influenzae", "value": 16, "unit": "µg/mL"},
      {"measurement": "MIC S cerevisiae MIC7", "setting": "S cerevisiae", "value": 64, "unit": "µg/mL"}
    ]},
    {"smiles": "O=[N+]([O-])c1ccc(-c2nnc(S)[nH]2)o1", "note": "[Compound 117]", "values": [
      {"measurement": "MIC", "setting": "E coli; read-out: MIC E coli MIC2", "value": "> 64", "unit": "µg/mL"},
      {"measurement": "MIC", "setting": "E coli (ImpA); read-out: MIC E coli (ImpA) MIC9", "value": 16, "unit": "µg/mL"},
      {"measurement": "MIC", "setting": "S aureus; read-out: MIC S aureus MIC2", "value": 64, "unit": "µg/mL"},
      {"measurement": "MIC", "setting": "E faecalis; read-out: MIC E faecalis MIC2", "value": 32, "unit": "µg/mL"},
      {"measurement": "MIC", "setting": "S pneumoniae; read-out: MIC S pneumoniae MIC6", "value": 2, "unit": "µg/mL"},
      {"measurement": "MIC", "setting": "M. catarrhalis; Moraxella catarrhalis, read-out: MIC M. catarrhalis MIC2", "value": 2, "unit": "µg/mL"},
      {"measurement": "MIC", "setting": "H influenzae; read-out: MIC H influenzae MIC4", "value": 8, "unit": "µg/mL"},
      {"measurement": "MIC", "setting": "S cerevisiae; read-out: MIC S cerevisiae MIC7", "value": "> 64", "unit": "µg/mL"}
    ]},
    {"smiles": "O=[N+]([O-])c1ccc(-c2nnc(S)n2-c2ccccc2)o1", "note": "[Compound 134]", "values": [
      {"measurement": "MIC E coli (ImpA) MIC9", "setting": "E coli (ImpA)", "value": 2, "unit": "µg/mL"},
      {"measurement": "MIC S aureus MIC2", "setting": "S aureus", "value": 2, "unit": "µg/mL"},
      {"measurement": "MIC E faecalis MIC2", "setting": "E faecalis", "value": 64, "unit": "µg/mL"},
      {"measurement": "MIC S pneumoniae MIC6", "setting": "S pneumoniae", "value": 8, "unit": "µg/mL"},
      {"measurement": "MIC M. catarrhalis MIC2", "setting": "M. catarrhalis", "value": 0.25, "unit": "µg/mL"},
      {"measurement": "MIC H influenzae MIC4", "setting": "H influenzae", "value": 8, "unit": "µg/mL"},
      {"measurement": "MIC S cerevisiae MIC7", "setting": "S cerevisiae", "value": ">64", "unit": "µg/mL"}
    ]},
    {"smiles": "O=[N+]([O-])c1ccc(-c2nnc(S)n2Cc2ccccc2)o1", "note": "[Compound 135]", "values": [
      {"measurement": "MIC E coli MIC2", "setting": "E coli", "value": ">64", "unit": "µg/mL"},
      {"measurement": "MIC E coli (ImpA) MIC9", "setting": "E coli (ImpA)", "value": 32, "unit": "µg/mL"},
      {"measurement": "MIC S aureus MIC2", "setting": "S aureus", "value": 32, "unit": "µg/mL"},
      {"measurement": "MIC E faecalis MIC2", "setting": "E faecalis", "value": 16, "unit": "µg/mL"},
      {"measurement": "MIC S pneumoniae MIC6", "setting": "S pneumoniae", "value": 8, "unit": "µg/mL"},
      {"measurement": "MIC M. catarrhalis MIC2", "setting": "M. catarrhalis", "value": 1, "unit": "µg/mL"},
      {"measurement": "MIC H influenzae MIC4", "setting": "H influenzae", "value": 64, "unit": "µg/mL"},
      {"measurement": "MIC S cerevisiae MIC7", "setting": "S cerevisiae", "value": ">64", "unit": "µg/mL"}
    ]},
    {"smiles": "Cn1c(SCC#N)nnc1-c1ccc([N+](=O)[O-])o1", "note": "[Compound 121]", "values": [
      {"measurement": "MIC E coli MIC2", "setting": "E coli", "value": 8, "unit": "µg/mL"},
      {"measurement": "MIC E coli (ImpA) MIC9", "setting": "E coli (ImpA)", "value": 2, "unit": "µg/mL"},
      {"measurement": "MIC S aureus MIC2", "setting": "S aureus", "value": 16, "unit": "µg/mL"},
      {"measurement": "MIC E faecalis MIC2", "setting": "E faecalis", "value": 64, "unit": "µg/mL"},
      {"measurement": "MIC S pneumoniae MIC6", "setting": "S pneumoniae", "value": 16, "unit": "µg/mL"},
      {"measurement": "MIC M. catarrhalis MIC2", "setting": "M. catarrhalis", "value": 1, "unit": "µg/mL"},
      {"measurement": "MIC H influenzae MIC4", "setting": "H influenzae", "value": 16, "unit": "µg/mL"},
      {"measurement": "MIC S cerevisiae MIC7", "setting": "S cerevisiae", "value": ">64", "unit": "µg/mL"}
    ]},
    {"smiles": "O=[N+]([O-])c1ccc(-c2nnc(S)n2-c2ccc(I)cc2)o1", "note": "[Compound 138]", "values": [
      {"measurement": "MIC E coli MIC2", "setting": "E coli", "value": ">64", "unit": "µg/mL"},
      {"measurement": "MIC E coli (ImpA) MIC9", "setting": "E coli (ImpA)", "value": 0.25, "unit": "µg/mL"},
      {"measurement": "MIC S aureus MIC2", "setting": "S aureus", "value": 0.5, "unit": "µg/mL"},
      {"measurement": "MIC E faecalis MIC2", "setting": "E faecalis", "value": 1, "unit": "µg/mL"},
      {"measurement": "MIC M. catarrhalis MIC2", "setting": "M. catarrhalis", "value": "<0.12", "unit": "µg/mL"},
      {"measurement": "MIC H influenzae MIC4", "setting": "H influenzae", "value": 8, "unit": "µg/mL"},
      {"measurement": "MIC S cerevisiae MIC7", "setting": "S cerevisiae", "value": 16, "unit": "µg/mL"}
    ]},
    {"smiles": "O=[N+]([O-])c1ccc(-c2nnc(S)n2-c2ccc(Br)cc2)o1", "note": "[Compound 141]", "values": [
      {"measurement": "MIC E coli MIC2", "setting": "E coli", "value": ">64", "unit": "µg/mL"},
      {"measurement": "MIC E coli (ImpA) MIC9", "setting": "E coli (ImpA)", "value": "<0.12", "unit": "µg/mL"},
      {"measurement": "MIC S aureus MIC2", "setting": "S aureus", "value": 0.25, "unit": "µg/mL"},
      {"measurement": "MIC E faecalis MIC2", "setting": "E faecalis", "value": 2, "unit": "µg/mL"},
      {"measurement": "MIC S pneumoniae MIC6", "setting": "S pneumoniae", "value": 2, "unit": "µg/mL"},
      {"measurement": "MIC M. catarrhalis MIC2", "setting": "M. catarrhalis", "value": 0.125, "unit": "µg/mL"},
      {"measurement": "MIC H influenzae MIC4", "setting": "H influenzae", "value": 8, "unit": "µg/mL"},
      {"measurement": "MIC S cerevisiae MIC7", "setting": "S cerevisiae", "value": 64, "unit": "µg/mL"}
    ]},
    {"smiles": "O=[N+]([O-])c1ccc(-c2nnc(S)n2C2CCCCC2)o1", "note": "[Compound 137]", "values": [
      {"measurement": "MIC E coli MIC2", "setting": "E coli", "value": ">64", "unit": "µg/mL"},
      {"measurement": "MIC E coli (ImpA) MIC9", "setting": "E coli (ImpA)", "value": 32, "unit": "µg/mL"},
      {"measurement": "MIC S aureus MIC2", "setting": "S aureus", "value": ">64", "unit": "µg/mL"},
      {"measurement": "MIC E faecalis MIC2", "setting": "E faecalis", "value": 32, "unit": "µg/mL"},
      {"measurement": "MIC S pneumoniae MIC6", "setting": "S pneumoniae", "value": 8, "unit": "µg/mL"},
      {"measurement": "MIC M. catarrhalis MIC2", "setting": "M. catarrhalis", "value": 1, "unit": "µg/mL"},
      {"measurement": "MIC H influenzae MIC4", "setting": "H influenzae", "value": 16, "unit": "µg/mL"},
      {"measurement": "MIC S cerevisiae MIC7", "setting": "S cerevisiae", "value": ">64", "unit": "µg/mL"}
    ]}
  ]
}
